# Laboratory results from article PMC9745132, “Visualization of real-time receptor endocytosis in dopamine neurons enabled by NTSR1-Venus knock-in mice” (Frontiers in Cellular Neuroscience, 2022).
# Where “and” joins values, the source holds several entries; their conditions need not be identical. Identical values can stand only once. Counter-ions that a name gives are not always drawn. *1 amine or outer side, *2 acyl side, *3 side chain or, on linkers, in order; H or OH if unused. Where a SMILES comes first, the peptide text is derived from it. [ ]: non-standard residue; d: D form. X1 = NCCCC[C@H](N)CN([C@@H](CCCCN)C(=O)[*:2])[*:1]; Tle = CC(C)(C)[C@H](N)C(=O)O
# How the values were obtained:
# [1] = biological target: T1, NTSR1 (Mus musculus, UniProt O88319); test: Gq activation ebBRET (Gq EMTA, p63RhoGEF-RlucII / rGFP-CAAX) in HEK293 cells, untagged NTSR1; format: cell-based; settings: mean ± SEM
# T1 construct: expressed in transfected cells; host or cells: HEK293 (HEK293SL)
# T1 sequence (O88319 whole entry): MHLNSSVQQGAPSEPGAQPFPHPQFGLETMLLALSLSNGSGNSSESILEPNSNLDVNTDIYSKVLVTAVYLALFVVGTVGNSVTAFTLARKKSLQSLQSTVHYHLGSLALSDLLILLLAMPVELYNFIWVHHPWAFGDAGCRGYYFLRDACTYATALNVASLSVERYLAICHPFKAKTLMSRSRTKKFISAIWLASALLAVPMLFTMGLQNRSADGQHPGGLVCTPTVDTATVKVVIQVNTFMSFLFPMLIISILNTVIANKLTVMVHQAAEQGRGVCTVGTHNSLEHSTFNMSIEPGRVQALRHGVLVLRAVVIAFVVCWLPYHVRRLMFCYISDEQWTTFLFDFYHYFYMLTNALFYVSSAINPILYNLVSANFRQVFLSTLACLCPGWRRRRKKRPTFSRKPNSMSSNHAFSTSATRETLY
# Source text: The mouse coding sequence of NTSR1 was PCR amplified from pCMV6-mNTSR1 (Origene, Rockville, MD, USA) and subcloned upstream from the IRES feature with a STOP codon before IRES into pIRES (Invitrogen, Waltham, MA, USA) and pIRES-Venus vector previously described ([Hamdan et al., 2005]) resulting in expression of either untagged NTSR1 or NTSR1-Venus. […] The pIRES vector was used The rGFP-CAAX BRET and Gq GEMTA biosensors construct were generated as previously described ([Namkung et al., 2016]; [Avet et al., 2022]).
# HEK293 clonal cell line (HEK293SL cells), hereafter referred as HEK293 cells, were a gift from S. Laporte (McGill University, Montreal, Quebec, Canada) and previously described ([Namkung et al., 2016]). Cells were maintained in Dulbecco’s Modified Eagle Medium (DMEM, Wisent, Saint-Jean-Baptiste, QC, Canada) supplemented with 10% fetal bovine serum (FBS, Wisent) and 1% antibiotics [100 U/mL penicillin and 100 μg/mL streptomycin (PS); Wisent]. Cells were grown at 37°C in 5% CO2 and 90% humidity and checked for mycoplasma contamination. […] The total quantity of DNA was completed at 1 μg with salmon sperm DNA (Invitrogen, Waltham, MA, USA). […]
# Forty-eight hours post-transfection, cells were washed once with phosphate-buffered saline (PBS) then incubated 1 h at 37°C in Tyrode buffer (137 mM NaCI, 0.9 mM KCI, 1 mM MgCI2, 1 1.9 mM NaHCO3, 3.6 mM NaH2PO4, 25 mM HEPES, 5.5 mM Glucose, and 1 mM CaCI2, pH 7.4). […] Bioluminescence resonance energy transfer (BRET) was then measured between RlucII (BRET energy donor) and rGFP (enhanced bystander ebBRET acceptor)–tagged proteins. BRET values were read for 1 s per well using a Mithras™ LB940 Multimode Microplate Reader (Berthold Technologies, Bad Wildbad, Germany) for concentration–response curves. ebBRET values were obtained by calculating the ratio of the light emitted by the energy acceptor over the light emitted by the energy donor (donor 410 ± 70 nm/acceptor 515 ± 20 nm). […] They were then fitted and analyzed in GraphPad Prism (v9.0, GraphPad Software, Inc., San Diego, CA, USA). […]
# [2] = test system: Ntsr1^Venus/Venus and Ntsr1^WT/WT mice; test: Locomotor activity in activity boxes after i.p. injection; format: in vivo, mouse
# Experimental: Locomotor activity was measured using Plexiglas activity boxes (20 × 20 × 20 cm) surrounded by horizontal and vertical infrared sensor beams (Versamax Omnitech Electronics, Columbus, OH, USA) during the light phase. The total numbers of animals used in locomotion experiments were n = 16 Ntsr1^Venus/Venus and n = 15 Ntsr1^WT/WT mice. Animals were habituated to the room in singly housed cages with home bedding for 1 h, before being injected with either 0.9% saline, 0.2, 0.5, 1, 5 mg/kg, PD149163, dissolved in 0.9% saline, and returned to their home cages for 30 min. Then mice were placed in horizontally opposed chambers, and horizontal movement (cm) was measured over the course of 2 h, in bins of 10 min.
# Having established evidence supporting functional NTSR1-Venus receptor signaling (Gq/Ca2+) and receptor endocytosis we next evaluated behavioral responses in these animals. […] First, when animals were not yet habituated to the activity chambers and only received saline injections, we observed somewhat higher activity counts for Ntsr1^Venus/Venus compared to Ntsr1^WT/WT animals (Supplementary Figure 1). […] A significant difference at 0.2 mg/kg and a trend that was not significant at higher doses (0.5, 1, or 5 mg/kg) was observed between Ntsr1^Venus/Venus and Ntsr1^WT/WT animals (Figure 2I). […]
# [3] = biological target: T2, NTSR1-Venus (Mus musculus, UniProt O88319); test: NTSR1-Venus endocytosis in primary hippocampal neurons (Venus/EEA1 colocalization; live confocal imaging); format: cell-based
# T2 construct: monitoring endogenous NTSR1-Venus receptor endocytosis could differentiate NTSR1 agonists; endogenous in cells; host or cells: primary hippocampal neurons from homozygous NTSR1-Venus knock-in mice (C57BL/6N background)
# T2 sequence (O88319 whole entry): as above
# Experimental: To isolate hippocampal neurons, P0 pups were removed from the cage of NTSR1-Venus homozygous knock-in breeding pairs. […] Neurons were plated on Poly-D-Lysine (Sigma) coated surfaces at 100,000 cells per 12 mm coverslip (NeuVitro, Camas, WA, USA) in a 24-well plate for immunostaining or 50,000 cells per well of an 8 well chamber slide (Ibidi, Grafelfing, Germany) for calcium measurements. Plating media [Neurobasal A (Gibco, Grand Island, NY, USA), 1% FBS (Fisher Scientific), 2% B-27 (Gibco, Grand Island, NY, USA), 0.5 mM GlutaMAX (Gibco, Grand Island, NY, USA), and 1x Penicillin/Streptomycin (Invitrogen, Waltham, MA, USA)] was exchanged 1 h after plating to maintenance media (Neurobasal A, 2% B-27, 0.5 mM GlutaMAX, and 1x Penicillin/Streptomycin).
# [4] = biological target: T2, NTSR1-Venus; test: Multiphoton imaging of NTSR1-Venus internalization in acute SN/VTA brain slices; format: cell-based; settings: 10 μM on slices recovered in 1 μM SR48692
# Experimental: Male and female Ntsr1^Venus/Venus mice aged 5 weeks were anesthetized, and 250 μm-thick coronal slices containing substantia nigra pars compacta and ventral tegmental area were prepared. Cutting solution contained (in mM): 87 NaCl, 25 NaHCO3, 25 glucose, 75 sucrose, 2.5 KCl, 1.25 NaH2PO4, 0.5 CaCl2, and 7 MgCl2; bubbled with 5% CO2/95%O2; 4°C. Following cutting, slices were incubated in the same solution for 30 min at 33°C. For control experiments, slices were subsequently incubated in the same solution at room temperature until imaging. For antagonist experiments, slices were subsequently incubated in cutting solution with 1 μM SR48962 until imaging. SR48962 was prepared as a 1 mM stock in water.
# Imaging solution referred to as aCSF contained (in mM): 125 NaCl, 2.5 KCl, 2 CaCl2, 1 MgCl2, 25 NaHCO3, 1.25 NaH2PO4, 25 glucose; bubbled with 5% CO2/95% O2; 31–34°C, ∼310 mOsm. For antagonist-only experiments, 1 μM SR48962 was added to the imaging solution. For antagonist plus agonist experiments, a baseline image was taken with no NTSR1 agonist or antagonist in the imaging solution, and subsequently, 10 μM PD149163 [prepared from a stock solution in water] was added to the imaging solution. As a precautionary measure, all components that were exposed to antagonist were rinsed first with 70% ethanol and then water. All components that were exposed to agonist were replaced between experiments.
# For two-photon laser scanning microscopy (2PLSM), a 2-photon source (Coherent Ultra II, Santa Clara, CA, USA) was tuned to 920 nm for imaging. […] Both epi and transfluorescence were detected with R9110 photomultiplier tubes (Hamamatsu, Shizuoka, Japan). Laser power measured at the focal plane under the objective was between 8 and 34 mW. […]
# To test whether NTSR1 receptors are indeed being bound by endogenous ligand in acute slice, we compared NTSR1 distribution in slices treated with the NTSR1 specific antagonist, SR48692 ([Gully et al., 1993]). […] NTSR1-Venus puncta were then quantified in the acquired image projections by counting vesicle-sized particles (Figure 5E). […]
smiles,measurement,setting,value
"CCOC(=O)[C@H](CC(C)C)NC(=O)[C@@H](NC(=O)[C@H](Cc1c[nH]c2ccccc12)NC(=O)[C@@H]1CCCN1C(=O)[C@H](CCCCN)NC[C@@H](N)CCCCN)C(C)(C)C [PD149163, PD149163 tetrahydrochloride hydrate] (H-[X1]PW[Tle]L-OEt; N-terminus and C-terminus assumed)",EC50,"[1]; given as LogEC50 (negative sign), read-out: Potency [LogEC50 (M)], Gq activation, NTSR1 (converted)",2.81e-08 M
same,"Efficacy (Raw BRET), Gq activation, NTSR1",[1],0.220 Raw BRET and 0.220 ± 0.013 Raw BRET
same,hypolocomotion in Ntsr1^Venus/Venus and Ntsr1^WT/WT animals,"[2]; 0.5 mg/kg i.p., measured 30 min after injection",induced NTSR1 mediated hypolocomotion to a similar extent
same,total distance traveled over 2 h as compared to saline animals,"[2]; i.p. 0.2, 0.5, 1, 5 mg/kg, both genotypes",dose-dependent decrease
same,time course of NTSR1-Venus in early endosomes,"[3]; 1 μM, 5 to 60 min",remained stable
same,"NTSR1-Venus internalization, live confocal imaging","[3]; 1 μM, 20 min live imaging of hippocampal neurons",robust internalization of the receptor
same,"percentage of endosomes containing NTSR1 after 60 min, PD149163 vs neurotensin","[3]; 1 μM, 60 min",significantly higher percentage
same,NTSR1-Venus redistribution to endosomes (% EEA1 vesicles),"[3]; 1 μM, within the first 5 min of agonist treatment",92.7% ± 6.9
same,EC50,"[3]; Ntsr1^Venus/Venus hippocampal neurons, 5 min of agonist treatment, read-out: EC50, NTSR1-Venus endocytosis (ratio of Venus and EEA1 positive to total EEA1 positive endosomes)",465 nM
same,vesicle-sized particle counts (NTSR1-Venus puncta) vs antagonist-only treated slices,[4],"significantly higher than antagonist-only treated slices at 15, 30, 45, and 60 min"
same,vesicle-sized particle counts (NTSR1-Venus puncta) vs control slices,[4],"significantly higher than controls at 30, 45, and 60 min"
